Test results from the supplement of paper PMC13380429.

What was measured:
Details in all cases: 72 h
Caco-2 [1] = test: relative viability EC50 (midpoint between 100% and the lowest measured viability); higher = less toxic
Vero E6 [2] = test: as above
Calu-3 [3] = test: as above
HepG2 [4] = test: as above
Caco-2 [5] = test: drug sensitivity score (DSS) for viability; higher = more toxic; extreme values may be limits of the assay
Vero E6 [6] = test: as above
Calu-3 [7] = test: as above
HepG2 [8] = test: as above
Caco-2 [9] = test: cell viability relative to DMSO; higher = less toxic
Vero E6 [10] = test: as above
Calu-3 [11] = test: as above
HepG2 [12] = test: as above
U2OS [13] = test: drug sensitivity score (DSS) for viability; higher = more toxic; extreme values may be limits of the assay
U2OS [14] = test: cell viability relative to DMSO; higher = less toxic

SMILES	relative viability EC50 (Caco-2 [1]) [µM]	relative viability EC50 (Vero E6 [2]) [µM]	relative viability EC50 (Calu-3 [3]) [µM]	relative viability EC50 (HepG2 [4]) [µM]	drug sensitivity score (Caco-2 [5])	drug sensitivity score (Vero E6 [6])	drug sensitivity score (Calu-3 [7])	drug sensitivity score (HepG2 [8])	cell viability (Caco-2 [9]; 1 nM) [%]	cell viability (Caco-2 [9]; 10 nM) [%]	cell viability (Caco-2 [9]; 100 nM) [%]	cell viability (Caco-2 [9]; 1000 nM) [%]	cell viability (Caco-2 [9]; 10000 nM) [%]	cell viability (Vero E6 [10]; 1 nM) [%]	cell viability (Vero E6 [10]; 10 nM) [%]	cell viability (Vero E6 [10]; 100 nM) [%]	cell viability (Vero E6 [10]; 1000 nM) [%]	cell viability (Vero E6 [10]; 10000 nM) [%]	cell viability (Calu-3 [11]; 1 nM) [%]	cell viability (Calu-3 [11]; 10 nM) [%]	cell viability (Calu-3 [11]; 100 nM) [%]	cell viability (Calu-3 [11]; 1000 nM) [%]	cell viability (Calu-3 [11]; 10000 nM) [%]	cell viability (HepG2 [12]; 1 nM) [%]	cell viability (HepG2 [12]; 10 nM) [%]	cell viability (HepG2 [12]; 100 nM) [%]	cell viability (HepG2 [12]; 1000 nM) [%]	cell viability (HepG2 [12]; 10000 nM) [%]	drug sensitivity score (U2OS [13])	cell viability (U2OS [14]; 1 nM) [%]	cell viability (U2OS [14]; 10 nM) [%]	cell viability (U2OS [14]; 100 nM) [%]	cell viability (U2OS [14]; 1000 nM) [%]	cell viability (U2OS [14]; 10000 nM) [%]
Cn1nnnc1SCC1=C(C(=O)O)N2C(=O)[C@@H](NC(=O)[C@H](OC=O)c3ccccc3)[C@H]2SC1 [cefamandole-nafate]	> 10	> 10	> 10	> 10	0	0	0	0	97.9	91.8	98.6	99.4	100	104	104	96.9	102	104	90.2	108	94.4	94.1	92.6	85.1	103	100	94.3	93.3	–	–	–	–	–	–
NC(=O)c1nc(F)cnc1O [favipiravir]	> 10	> 10	> 10	> 10	0	0	0	0	88.5	91.7	71.8	84.7	88.6	109	88.4	101	96.8	103	100	105	98.5	111	97.7	102	98.8	103	79.1	118	–	–	–	–	–	–
O=C1c2ccccc2S(=O)(=O)N1CCCCN1CCN(c2ncccn2)CC1 [ipsapirone]	> 10	> 10	> 10	> 10	0	0	0	0	104	90.5	90.7	98.2	97.8	97	102	97.2	91.8	105	106	93.9	94.3	99.6	102	96.6	102	103	101	103	–	–	–	–	–	–
C[C@@H]1CC(=O)NN=C1c1ccc(NN=C(C#N)C#N)cc1 [levosimendan]	> 10	> 10	> 10	> 10	0	0	0	0	97.2	113	98.9	96	94.6	95.6	102	85.7	103	99	93.7	95.8	100	97.3	109	101	102	98.5	99.6	88.4	1.8	99	96.8	101	96.2	71.3
Cc1c(C)c2c(c(C)c1OC(=O)CCC(=O)OCCO)CC[C@@](C)(CCC[C@H](C)CCC[C@H](C)CCCC(C)C)O2 [tocofersolan]	> 10	> 10	> 10	> 10	0	0	0	0	96.8	105	106	101	90.2	97.8	97.9	95.9	94.9	99.3	105	101	105	104	95.2	98.4	99.8	95	103	100	1.3	102	105	99	98.4	72.9
Cc1cc(C)cc(C(=O)O[C@H]2C[C@H]3CC[C@@H](C2)N3C)c1 [tropanyl-3,5-dimethylbenzoate]	> 10	> 10	> 10	> 10	0	0	0	0	104	97.6	92.7	102	94.9	91.8	94.3	96.3	91.7	108	99.7	107	98.2	106	93.3	99.5	106	102	92.7	93.2	–	–	–	–	–	–
CC(=O)N[C@H]1[C@H]([C@H](O)[C@H](O)CO)OC(C(=O)O)=C[C@@H]1NC(=N)N [zanamivir]	> 10	> 10	> 10	> 10	0	0	0	0	96.4	90.9	101	101	106	94.6	98.4	90.6	98.7	109	93.8	92	93.2	91.8	95.1	93.4	95.5	95.7	110	107	–	–	–	–	–	–
